Data: PubChem BioAssay AID743499 (The Scripps Research Institute Molecular Screening Center, 2014)
Activity calls are given as the source filed them. No rule for the calls is given here.

System: Crimean-Congo hemorrhagic fever virus L protein ovarian tumor domain protease (vOTU)
Test: PubChem AID 743499
Settings: purified CCHFV vOTU, di-Ub K63 fluorescence cleavage, active compounds read high

**Q.** `O=C1C=C(Nc2ccccc2)c2ccccc2C1=O` was tested. Which inhibition (at 15.55 µM) did it give?
**A.** 89.1%

**Q.** How did the inhibition (at 1.31 µM) turn out when `O=C1Cc2ccccc2C(=O)N1Cc1ccccc1` was run?
**A.** 37.1%

**Q.** How did the inhibition (at 40.58 µM) turn out when `O=C(COC(=O)c1ccc([N+](=O)[O-])s1)NCc1ccc(F)cc1` was run?
**A.** 70%

**Q.** For `COC(CNC(=O)c1ccc2c3c(onc13)-c1ccccc1C2=O)OC`, which inhibition (at 24.19 µM) is on record?
**A.** 46%

**Q.** For `Cc1c(Cl)cnc(NC(=O)COC(=O)c2ccc([N+](=O)[O-])s2)c1Cl`, which inhibition (at 20.44 µM) is on record?
**A.** 76.2%

**Q.** For `COc1cc(NC(=O)COC(=O)c2ccc([N+](=O)[O-])s2)cc(OC)c1OC`, which inhibition (at 21.72 µM) is on record?
**A.** 82.2%

**Q.** With `O=C(/C=C/c1ccc(O)cc1)c1ccc(NC2=C(N3CCCCC3)C(=O)c3ccccc3C2=O)cc1` as the compound, how does the inhibition (at 10.17 µM) read?
**A.** 38.1%

**Q.** Which inhibition (at 6.28 µM) does the source give for `COc1ccc2noc3c2c1C(=O)c1ccccc1-3` here?
**A.** 27.6%

**Q.** For `NC1=C(Cl)C(=O)c2ccc(S(N)(=O)=O)cc2C1=O`, which inhibition (at 0.39 µM) is on record?
**A.** 50.5%

**Q.** For `Cc1ccc2c(c1C)-c1c(ccc(C)c1C)C(=O)C2=O`, which inhibition (at 18.9 µM) is on record?
**A.** 55.7%

**Q.** Which inhibition (at 11.51 µM) does the source give for `NS(=O)(=O)c1ccc(NC2=CC(=O)C(=O)c3ccccc32)cc1` here?
**A.** 44.4%

**Q.** Which inhibition (at 7.75 µM) does the source give for `CCOC(=O)N=Nc1c2ccccc2c2nc3no[nH]c3nc12` here?
**A.** 24.5%

**Q.** How did the inhibition (at 11.01 µM) turn out when `O=C(c1ccco1)[C@@H]1[C@@H]2C(=O)N(c3ccc(Br)cc3)C(=O)[C@@H]2C2c3ccccc3C=CN21` (stereo partly specified) was run?
**A.** 59.9%

**Q.** For `NS(=O)(=O)c1ccc(NC(=O)COC(=O)c2ccc([N+](=O)[O-])s2)cc1`, which inhibition (at 29.01 µM) is on record?
**A.** 94.1%

**Q.** With `COc1ccccc1NC(=O)COC(=O)c1ccc([N+](=O)[O-])s1` as the compound, how does the inhibition (at 35.07 µM) read?
**A.** 84.1%

**Q.** For `Cc1ccc(NC2=CC(=O)C(=O)c3ccccc32)cc1`, which inhibition (at 12.24 µM) is on record?
**A.** 103%

**Q.** Which inhibition (at 5.2 µM) does the source give for `Cc1ccc(N2C(=O)[C@@H]3[C@H](C2=O)C2c4ccccc4C=CN2[C@@H]3C(=O)c2ccco2)cc1` (stereo partly specified) here?
**A.** 31.4%

**Q.** For `COC1=C(N)C(=O)c2nc(C)ccc2C1=O`, which inhibition (at 4.98 µM) is on record?
**A.** 53.1%

**Q.** `O=C1Cc2ccccc2C(=O)N1CCc1ccccc1` was tested. Which inhibition (at 3.02 µM) did it give?
**A.** 11.1% (inactive)

**Q.** With `Cc1ccccc1-c1cc2c(nn1)-c1ccccc1C2=O` as the compound, how does the inhibition (at 4.5 µM) read?
**A.** 14.8% (inactive)

**Q.** Which inhibition (at 19.18 µM) does the source give for `CN(C1=C(NC(=O)c2ccccc2)C(=O)c2ccccc2C1=O)C1CCS(=O)(=O)C1` (stereo unspecified) here?
**A.** 27.5%

**Q.** Which inhibition (at 23.49 µM) does the source give for `CC1(C)C=C2C(=NN(c3ccccc3)C(N)=C2C#N)CO1` here?
**A.** 76.2%

**Q.** `CC1CCCC(NC(=O)COC(=O)c2ccc([N+](=O)[O-])s2)C1C` (stereo unspecified) was tested. Which inhibition (at 31.32 µM) did it give?
**A.** 43.6%

**Q.** `O=C(NC1=CC(=O)c2ccccc2C1=O)c1ccccc1` was tested. Which inhibition (at 12.37 µM) did it give?
**A.** 33.4%

**Q.** With `CCc1cc[n+](C2=C(NS(=O)(=O)c3cccs3)C(=O)c3ccccc3C2=O)cc1` as the compound, how does the inhibition (at 14.16 µM) read?
**A.** 50.9%

**Q.** Which inhibition (at 0.6 µM) does the source give for `O=C1Cc2ccccc2C(=O)N1` here?
**A.** 39.2%

**Q.** With `CCn1nc(/C=C/c2ccccc2)nc2c(=O)n(C)c(=O)nc1-2` as the compound, how does the inhibition (at 0.49 µM) read?
**A.** 96.1%

**Q.** For `O=C(COC(=O)c1ccc([N+](=O)[O-])s1)Nc1ncc(C(F)(F)F)cc1Cl`, which inhibition (at 27.79 µM) is on record?
**A.** 68.2%

**Q.** Which inhibition (at 14.2 µM) does the source give for `O=C(NC1=C(NC2CCS(=O)(=O)C2)C(=O)c2ccccc2C1=O)c1ccccc1` (stereo unspecified) here?
**A.** 43.9%

**Q.** Which inhibition (at 26.04 µM) does the source give for `O=C(OCc1nnc(-c2ccccc2)o1)c1ccc([N+](=O)[O-])s1` here?
**A.** 99.5%

**Q.** Which inhibition (at 1.45 µM) does the source give for `O=c1[nH]c(Nc2ccccc2)cc2cc(Br)ccc12` here?
**A.** 22%

**Q.** How did the inhibition (at 26.34 µM) turn out when `O=C(COC(=O)c1ccc([N+](=O)[O-])s1)Nc1ccc(F)cc1` was run?
**A.** 99.5%

**Q.** For `Cn1nc(-c2ccccn2)nc2c(=O)n(C)c(=O)nc1-2`, which inhibition (at 1.16 µM) is on record?
**A.** 75.7%

**Q.** For `COc1cc(Br)c(C(=O)c2nccc3cc(OC)c(OC)cc23)cc1OC`, which inhibition (at 1.13 µM) is on record?
**A.** 21%

**Q.** With `CC1COCC(C)N1C1=C(Cl)C(=O)c2ccccc2C1=O` (stereo unspecified) as the compound, how does the inhibition (at 14.67 µM) read?
**A.** 24.6%

**Q.** Which inhibition (at 4.57 µM) does the source give for `Nc1cc2c(cc1Br)[nH]c(=O)c1ccccc12` here?
**A.** 4.29% (inactive)
